The values that follow come from ChEMBL document CHEMBL1153165, “Solvent-free, microwave assisted synthesis of polyhalo heterocyclic ketene aminals as novel anti-cancer agents” (Bioorg Med Chem Lett, 2010).

The structures appear in SMILES notation. In brackets after ≈: the same amount, converted by molar mass.

Common to all, as to assay type: functional, cell-based
One assay deals with HL-60. As to the kind of experiment: Antitumor activity against human HL60 cells by MTT assay. (In general: Tetrazolium dyes change colour on reduction, which living cells bring about.)
Another assay concerns HepG2. As to the kind of experiment: Antitumor activity against human HepG2 cells by MTT assay.
For another assay, the system named is SK-OV-3. As to the kind of experiment: Antitumor activity against human SKOV3 cells by MTT assay.
For another assay, the system named is A-431. As to the kind of experiment: Antitumor activity against human A431 cells by MTT assay.
The test system of another assay is K562. The experiment in a line: Antitumor activity against human K562 cells by MTT assay.

In the case of `CCOC(=O)C(=C1NCCN1)c1c(Cl)c(F)c(C#N)c(F)c1C#N`, the IC50 with HL-60 was determined as 0.02 mg/L (≈ 0.0567 µM); with HepG2, 2.5 mg/L (≈ 7.09 µM); in the assay with SK-OV-3, 4.9 mg/L (≈ 13.9 µM); with A-431, 3.9 mg/L (≈ 11.1 µM); in the assay on K562 it was 0.09 mg/L (≈ 0.255 µM).

On to `COc1ccc(C(=O)C(=C2NCCN2)c2c(Cl)c(Cl)c(C#N)c(Cl)c2C#N)cc1`, for which the half-inhibitory concentration (IC50) with HL-60 was 2.3 mg/L (≈ 5.14 µM); in the assay with HepG2, 10.8 mg/L (≈ 24.1 µM); with SK-OV-3, 6.4 mg/L (≈ 14.3 µM); in the assay on A-431 it was 0.5 mg/L (≈ 1.12 µM); with K562, 0.08 mg/L (≈ 0.179 µM).

Regarding `Cc1ccc(C(=O)C(=C2NCCN2)c2c(Cl)c(F)c(C#N)c(F)c2C#N)cc1`, the IC50 was 0.03 mg/L (≈ 0.0752 µM) in the assay on HL-60; 49.1 mg/L (≈ 123 µM) in the assay with HepG2; 6.7 mg/L (≈ 16.8 µM) in the assay with SK-OV-3; 1.7 mg/L (≈ 4.26 µM) in the assay on A-431; 41.9 mg/L (≈ 105 µM) in the assay on K562.

For `N#Cc1c(F)c(Cl)c(C(C(=O)c2ccccc2)=C2NCCCCN2)c(C#N)c1F`, the IC50 was found to be 0.1 mg/L (≈ 0.242 µM) in the assay with HL-60; 27.8 mg/L (≈ 67.3 µM) with HepG2; 4.6 mg/L (≈ 11.1 µM) in the assay on SK-OV-3; 1.5 mg/L (≈ 3.63 µM) with A-431; 2.1 mg/L (≈ 5.09 µM) in the assay on K562.

On to `N#Cc1c(Cl)c(Cl)c(C(C(=O)c2ccccc2)=C2NCCCCN2)c(C#N)c1Cl`, for which the concentration for half-maximal inhibition (IC50) worked out at 0.2 mg/L (≈ 0.449 µM) with HL-60; 14.5 mg/L (≈ 32.5 µM) in the assay with HepG2; 2.7 mg/L (≈ 6.06 µM) in the assay with SK-OV-3; 1 mg/L (≈ 2.24 µM) in the assay on A-431; 0.1 mg/L (≈ 0.224 µM) with K562.

In the case of `N#Cc1c(Cl)c(Cl)c(C(C(=O)c2ccccc2)=C2NCCN2)c(C#N)c1Cl`, the half-inhibitory concentration (IC50) in the assay with HL-60 was determined as 9.1 mg/L (≈ 21.8 µM); in the assay on HepG2 it was 10.2 mg/L (≈ 24.4 µM); in the assay with SK-OV-3, 9.9 mg/L (≈ 23.7 µM); with A-431, 2.3 mg/L (≈ 5.51 µM); in the assay with K562 it was 8.5 mg/L (≈ 20.4 µM).

Turning to `N#Cc1c(Cl)c(Cl)c(C(C(=O)c2ccc(Cl)cc2)=C2NCCN2)c(C#N)c1Cl`, the half-maximal inhibitory concentration (IC50) was determined as 0.5 mg/L (≈ 1.11 µM) in the assay with HL-60; 5.2 mg/L (≈ 11.5 µM) with HepG2; 1.6 mg/L (≈ 3.54 µM) in the assay with SK-OV-3; 1.5 mg/L (≈ 3.32 µM) in the assay on A-431; 0.8 mg/L (≈ 1.77 µM) with K562.

Turning to `N#Cc1c(F)c(F)c(C(C(=O)c2ccc(F)cc2)=C2NCCCN2)c(C#N)c1F`, the IC50 in the assay on HL-60 amounted to 0.04 mg/L (≈ 0.0999 µM); in the assay on HepG2, 11 mg/L (≈ 27.5 µM); in the assay on SK-OV-3, 0.5 mg/L (≈ 1.25 µM); in the assay with A-431, 1.8 mg/L (≈ 4.5 µM); with K562, 2.5 mg/L (≈ 6.24 µM).

For `N#Cc1c(F)c(F)c(C(C(=O)c2ccccc2)=C2NCCN2)c(C#N)c1F`, the concentration for half-maximal inhibition (IC50) is 0.2 mg/L (≈ 0.543 µM) in the assay on HL-60; 9.1 mg/L (≈ 24.7 µM) in the assay on HepG2; 30.3 mg/L (≈ 82.3 µM) in the assay with SK-OV-3; 5.5 mg/L (≈ 14.9 µM) in the assay with A-431; 19.6 mg/L (≈ 53.2 µM) in the assay with K562.

Turning to `CCOC(=O)C(=C1NCCN1)c1c(Cl)c(Cl)c(C#N)c(Cl)c1C#N`, the half-maximal inhibitory concentration (IC50) in the assay on HL-60 came to 0.4 mg/L (≈ 1.04 µM); in the assay on HepG2 it was 0.2 mg/L (≈ 0.519 µM); in the assay with SK-OV-3, 4.1 mg/L (≈ 10.6 µM); with A-431, 0.2 mg/L (≈ 0.519 µM); in the assay with K562 it was 0.5 mg/L (≈ 1.3 µM).

Consider `N#Cc1c(F)c(F)c(C(C(=O)c2ccc(Cl)cc2)=C2NCCN2)c(C#N)c1F`, for which the IC50 with HL-60 was 0.3 mg/L (≈ 0.745 µM); with HepG2, 12.5 mg/L (≈ 31 µM); in the assay on SK-OV-3 it was 3.8 mg/L (≈ 9.43 µM); in the assay with A-431 it was 3.2 mg/L (≈ 7.95 µM); with K562, 1.8 mg/L (≈ 4.47 µM).

In the case of `N#Cc1c(Cl)c(Cl)c(C(C(=O)c2ccc(F)cc2)=C2NCCCN2)c(C#N)c1Cl`, the half-maximal inhibitory concentration (IC50) with HL-60 came out at 2.1 mg/L (≈ 4.67 µM); in the assay on HepG2, 31.8 mg/L (≈ 70.7 µM); in the assay on SK-OV-3, 10.4 mg/L (≈ 23.1 µM); in the assay with A-431, 1.1 mg/L (≈ 2.45 µM); in the assay with K562, 0.2 mg/L (≈ 0.445 µM).

With `N#Cc1c(F)c(C#N)c(C(C(=O)c2ccccc2)=C2NCCN2)c(F)c1Nc1ccccc1`, the IC50 amounted to 0.3 mg/L (≈ 0.68 µM) with HL-60; 102 mg/L (≈ 231 µM) in the assay on HepG2; 0.2 mg/L (≈ 0.453 µM) in the assay on SK-OV-3; 5.3 mg/L (≈ 12 µM) with A-431; 5.6 mg/L (≈ 12.7 µM) in the assay with K562.

On to `CCOC(=O)C(=C1NCCN1)c1c(F)c(F)c(C#N)c(F)c1C#N`, for which the IC50 is 0.02 mg/L (≈ 0.0595 µM) in the assay with HL-60; 0.7 mg/L (≈ 2.08 µM) in the assay with HepG2; 3.3 mg/L (≈ 9.81 µM) in the assay with SK-OV-3; 3.7 mg/L (≈ 11 µM) in the assay on A-431; 0.03 mg/L (≈ 0.0892 µM) in the assay with K562.

For `Cc1ccc(C(=O)C(=C2NCCN2)c2c(Cl)c(Cl)c(C#N)c(Cl)c2C#N)cc1`, the IC50 with HL-60 was determined as 15.7 mg/L (≈ 36.4 µM); with HepG2 it was 15.8 mg/L (≈ 36.6 µM); in the assay on SK-OV-3, 9.2 mg/L (≈ 21.3 µM); with A-431, 4.1 mg/L (≈ 9.5 µM); with K562 it was 1.4 mg/L (≈ 3.24 µM).

For the compound `N#Cc1c(F)c(Cl)c(C(C(=O)c2ccc(Cl)cc2)=C2NCCN2)c(C#N)c1F`, the IC50 in the assay with HL-60 turned out to be 0.3 mg/L (≈ 0.716 µM); in the assay with HepG2, 47.5 mg/L (≈ 113 µM); in the assay on SK-OV-3 it was 8.6 mg/L (≈ 20.5 µM); with A-431, 1.8 mg/L (≈ 4.29 µM); with K562 it was 1.6 mg/L (≈ 3.82 µM).

With `N#Cc1c(F)c(Cl)c(C(C(=O)c2ccc(F)cc2)=C2NCCCN2)c(C#N)c1F`, the IC50 in the assay with HL-60 was 0.6 mg/L (≈ 1.44 µM); with HepG2 it was 45.1 mg/L (≈ 108 µM); in the assay on SK-OV-3 it was 8.2 mg/L (≈ 19.7 µM); with A-431, 0.9 mg/L (≈ 2.16 µM); in the assay with K562, 1.8 mg/L (≈ 4.32 µM).

As to `CC(=O)C(=C1NCCN1)c1c(Cl)c(F)c(C#N)c(F)c1C#N`, the IC50 came to 0.3 mg/L (≈ 0.93 µM) in the assay with HL-60; 1.3 mg/L (≈ 4.03 µM) in the assay on HepG2; 1.5 mg/L (≈ 4.65 µM) in the assay with SK-OV-3; 2.9 mg/L (≈ 8.99 µM) in the assay with A-431; 4.4 mg/L (≈ 13.6 µM) in the assay on K562.

For `CC(=O)C(=C1NCCN1)c1c(Cl)c(Cl)c(C#N)c(Cl)c1C#N`, the half-inhibitory concentration (IC50) was 3.7 mg/L (≈ 10.4 µM) in the assay with HL-60; 5.8 mg/L (≈ 16.3 µM) with HepG2; 14.1 mg/L (≈ 39.6 µM) with SK-OV-3; 1.5 mg/L (≈ 4.22 µM) in the assay with A-431; 0.1 mg/L (≈ 0.281 µM) with K562.

As for `Cc1ccc(C(=O)C(=C2NCCN2)c2c(F)c(F)c(C#N)c(F)c2C#N)cc1`, the IC50 is 0.04 mg/L (≈ 0.105 µM) in the assay on HL-60; 29.2 mg/L (≈ 76.4 µM) with HepG2; 2 mg/L (≈ 5.23 µM) in the assay on SK-OV-3; 0.5 mg/L (≈ 1.31 µM) in the assay with A-431; 0.9 mg/L (≈ 2.35 µM) in the assay with K562.

For the compound `N#Cc1c(F)c(Cl)c(C(C(=O)c2ccccc2)=C2NCCN2)c(C#N)c1F`, the IC50 in the assay with HL-60 was determined as 4.7 mg/L (≈ 12.2 µM); in the assay on HepG2, 32.6 mg/L (≈ 84.7 µM); in the assay with SK-OV-3, 32.6 mg/L (≈ 84.7 µM); in the assay with A-431, 87.1 mg/L (≈ 226 µM); in the assay with K562, 20.8 mg/L (≈ 54.1 µM).

`N#Cc1c(F)c(F)c(C(C(=O)c2ccccc2)=C2NCCCCN2)c(C#N)c1F`: the 50% inhibitory concentration (IC50) with HL-60 was found to be 0.1 mg/L (≈ 0.252 µM); in the assay with HepG2, 24.9 mg/L (≈ 62.8 µM); in the assay on SK-OV-3, 4.2 mg/L (≈ 10.6 µM); in the assay with A-431 it was 1.9 mg/L (≈ 4.79 µM); in the assay with K562, 0.3 mg/L (≈ 0.757 µM).

For the compound `COc1ccc(C(=O)C(=C2NCCN2)c2c(Cl)c(F)c(C#N)c(F)c2C#N)cc1`, the concentration for half-maximal inhibition (IC50) was found to be 0.05 mg/L (≈ 0.121 µM) in the assay with HL-60; 9.8 mg/L (≈ 23.6 µM) in the assay on HepG2; 1.1 mg/L (≈ 2.65 µM) in the assay on SK-OV-3; 0.7 mg/L (≈ 1.69 µM) in the assay on A-431; 22.6 mg/L (≈ 54.5 µM) in the assay on K562.

The term IC50 denotes the point on the concentration scale where inhibition reaches its midpoint. A higher IC50 goes with weaker potency.
